Experimental data as given in PubChem BioAssay AID330 (DTP/NCI, 2004).
“And” between values parts separate entries of the source, which are not always exact repeats. Equal values may be shown once. Toxic doses and inconclusive results are not listed. The calls were made as follows: active = survival T/C of 150% or more; inactive = T/C below 125% in these data.

System: P388 leukemia ip, CD2F1 mice, survival T/C
Experiment: NCI In Vivo Anticancer Drug Screen. Data for tumor model P388 Leukemia (intraperitoneal) in CD2F1 (CDF1) mice
Details: endpoint: median survival time, higher = longer survival
Procedure, shortened: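 Mice carrying the transplanted tumor received test compound or vehicle. Survival was recorded in each group, and the value is the treated-group measurement divided by that of the vehicle-treated control group.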

[1] = dose: 50.0 mg/kg/injection, schedule: Q01DX005 (ip), vehicle: saline with Tween-80
[2] = dose: 100.0 mg/kg/injection, schedule: Q01DX005 (ip), vehicle: saline with Tween-80
[3] = dose: 60.0 mg/kg/injection, schedule: Q01DX005 (ip), vehicle: saline with Tween-80
[4] = dose: 100.0 mg/kg/injection, schedule: Q04DX002 (ip), vehicle: saline with Tween-80
[5] = dose: 200.0 mg/kg/injection, schedule: Q04DX002 (ip), vehicle: saline with Tween-80
[6] = dose: 400.0 mg/kg/injection, schedule: Q04DX002 (ip), vehicle: saline with Tween-80
[7] = dose: 50.0 mg/kg/injection, schedule: Q01DX009 (ip), vehicle: saline with Tween-80
[8] = dose: 100.0 mg/kg/injection, schedule: Q01DX009 (ip), vehicle: saline with Tween-80
[9] = dose: 200.0 mg/kg/injection, schedule: Q01DX009 (ip), vehicle: saline with Tween-80
[10] = dose: 25.0 mg/kg/injection, schedule: Q01DX009 (ip), vehicle: saline with Tween-80

Measured: T/C

NS(=O)(=O)c1ccc(C(=O)O)s1
inactive: [1] 104 % of control | [2] 100 % of control

N#CC(/C=C/c1ccccc1)(NO)Nc1cccc(Cl)c1 (centres undefined)
inactive: [3] 116 % of control | dose: 120.0 mg/kg/injection, schedule: Q01DX005 (ip), vehicle: saline with Tween-80 114 % of control

COC[C@H]1OC(=O)c2coc3c2[C@@]1(C)C1=C(C3=O)[C@@H]2CCC(=O)[C@@]2(C)C[C@H]1OC(C)=O
inactive: dose: 0.31 mg/kg/injection, schedule: Q01DX009 (ip), vehicle: saline with Tween-80 115 % of control | dose: 2.5 mg/kg/injection, schedule: Q01DX009 (ip), vehicle: saline with Tween-80 99 % of control and 90 % of control

CN(C)CCCN1CCC2(CCC(C(C)(C)C)CC2)CC1
inactive: [1] 106 % of control | [2] 116 % of control

CC(NC(=O)C1CC(O)CN1C(=O)CN)C(=O)O (centres undefined)
inactive: dose: 50.0 mg/kg/injection, schedule: Q01DX005 (ip), vehicle: Klucel (hydroxypropylcellulose) (HPC) 96 % of control | dose: 100.0 mg/kg/injection, schedule: Q01DX005 (ip), vehicle: Klucel (hydroxypropylcellulose) (HPC) 110 % of control | dose: 200.0 mg/kg/injection, schedule: Q01DX005 (ip), vehicle: Klucel (hydroxypropylcellulose) (HPC) 94 % of control

C[N+]12CCC34C5=CC(=O)C(=O)C=C5[N+]5(C)C(=O)CC6OCC=C(C1)C(CC32)C6C45 (centres undefined)
inactive: dose: 7.5 mg/kg/injection, schedule: Q01DX005 (ip), vehicle: saline 102 % of control | dose: 15.0 mg/kg/injection, schedule: Q01DX005 (ip), vehicle: saline 104 % of control | dose: 30.0 mg/kg/injection, schedule: Q01DX005 (ip), vehicle: saline 97 % of control

O=S1(=O)N=C(Sc2nc3ccccc3o2)c2ccccc21
inactive: [4] 102 % of control | [5] 107 % of control | [6] 115 % of control

Fc1ccccc1C(Nc1nncs1)Nc1nncs1
inactive: dose: 15.0 mg/kg/injection, schedule: Q01DX005 (ip), vehicle: saline with Tween-80 95 % of control | dose: 30.0 mg/kg/injection, schedule: Q01DX005 (ip), vehicle: saline with Tween-80 94 % of control | [3] 102 % of control and 104 % of control

CCCCCCCCCOCC(=O)O
inactive: [7] 100 % of control | [8] 99 % of control | [9] 95 % of control

CCCCCCCCCCCCNC(=O)C[n+]1cccc(C(=O)Nc2ccccc2)c1
inactive: dose: 3.0 mg/kg/injection, schedule: Q01DX009 (ip), vehicle: saline with Tween-80 100 % of control | dose: 6.0 mg/kg/injection, schedule: Q01DX009 (ip), vehicle: saline with Tween-80 104 % of control | dose: 12.0 mg/kg/injection, schedule: Q01DX009 (ip), vehicle: saline with Tween-80 95 % of control

CN(Cc1cccc2ccccc12)Cc1cccc2ccccc12
inactive: [1] 86 % of control | [2] 89 % of control

BrCC1CN=C(c2ccccc2)O1 (centres undefined)
inactive: dose: 60.0 mg/kg/injection, schedule: Q01DX005 (ip), vehicle: saline 104 % of control | dose: 120.0 mg/kg/injection, schedule: Q01DX005 (ip), vehicle: saline 101 % of control | dose: 240.0 mg/kg/injection, schedule: Q01DX005 (ip), vehicle: saline 101 % of control

Oc1cc2c(cc1O)C(c1ccccc1)CNCC2 (centres undefined)
inactive: [10] 103 % of control | [7] 97 % of control | [8] 104 % of control

CC1(C)COC(=O)C(C)(C2(C)NC(C)(C)COC2=O)N1 (centres undefined)
inactive: [10] 99 % of control | [7] 102 % of control | [8] 101 % of control | dose: 200.0 mg/kg/injection, schedule: Q01DX001 (ip), vehicle: saline with Tween-80 95 % of control | [9] 114 % of control | dose: 400.0 mg/kg/injection, schedule: Q01DX001 (ip), vehicle: saline with Tween-80 97 % of control | dose: 400.0 mg/kg/injection, schedule: Q01DX009 (ip), vehicle: saline with Tween-80 106 % of control | dose: 800.0 mg/kg/injection, schedule: Q01DX001 (ip), vehicle: saline with Tween-80 101 % of control

Cn1c2c(c3cc(I)ccc31)CCc1cncnc1-2
inactive: dose: 37.5 mg/kg/injection, schedule: Q01DX001 (ip), vehicle: Klucel (hydroxypropylcellulose) (HPC) 102 % of control | dose: 75.0 mg/kg/injection, schedule: Q01DX001 (ip), vehicle: Klucel (hydroxypropylcellulose) (HPC) 91 % of control | dose: 150.0 mg/kg/injection, schedule: Q01DX001 (ip), vehicle: Klucel (hydroxypropylcellulose) (HPC) 91 % of control

Fc1ccc(NC(=S)SCc2ccc(Cl)c(Cl)c2)cc1
inactive: dose: 50.0 mg/kg/injection, schedule: Q01DX009 (ip), vehicle: suspension in saline 90 % of control | dose: 100.0 mg/kg/injection, schedule: Q01DX009 (ip), vehicle: suspension in saline 90 % of control | dose: 200.0 mg/kg/injection, schedule: Q01DX009 (ip), vehicle: suspension in saline 102 % of control

Cc1ccc(S(=O)c2cc(C)cc(C(C)(C)C)c2O)cc1 (centres undefined)
inactive: [7] 103 % of control | [8] 105 % of control | [9] 96 % of control

CON/C=C(C#N)/C=C/C=Nc1ccc(S(=O)(=O)N=C(N)N)cc1
inactive: dose: 12.5 mg/kg/injection, schedule: Q01DX009 (ip), vehicle: saline with Tween-80 98 % of control | [10] 93 % of control | [7] 87 % of control and 92 % of control

CC[CH2][Sn]([CH2]CC)([CH2]CC)[CH2]CCBr
inactive: [7] 106 % of control | [8] 100 % of control

O=C(c1ccccc1)C12CCC(CC1)C2
inactive: dose: 50.0 mg/kg/injection, schedule: Q01DX009 (ip), vehicle: Klucel (hydroxypropylcellulose) (HPC) 103 % of control | dose: 100.0 mg/kg/injection, schedule: Q01DX009 (ip), vehicle: Klucel (hydroxypropylcellulose) (HPC) 103 % of control | dose: 200.0 mg/kg/injection, schedule: Q01DX009 (ip), vehicle: Klucel (hydroxypropylcellulose) (HPC) 110 % of control

C=C(/C=C/C1OC2OC(C)(C)OC2C1OC)OP(=O)(OCC)OCC (centres undefined)
inactive: [4] 103 % of control | [5] 100 % of control | [6] 91 % of control

CC(C)(O)CCC(=O)[C@](C)(O)[C@H]1[C@H](O)C[C@@]2(C)[C@@H]3CC=C4[C@@H](C[C@@H](O)[C@@H](O)C4(C)C)[C@]3(C)C(=O)C[C@]12C
inactive: dose: 1.25 mg/kg/injection, schedule: Q01DX005 (ip), vehicle: saline with Tween-80 100 % of control | dose: 2.5 mg/kg/injection, schedule: Q01DX005 (ip), vehicle: saline with Tween-80 97 % of control | dose: 5.0 mg/kg/injection, schedule: Q01DX005 (ip), vehicle: saline with Tween-80 95 % of control | dose: 10.0 mg/kg/injection, schedule: Q01DX005 (ip), vehicle: saline with Tween-80 104 % of control

O=NN(c1ccccc1)c1ccccc1
inactive: [7] 101 % of control | [8] 100 % of control | [9] 98 % of control

CC1N=C(SCc2ccc(Cl)cc2)N2C(C)N=C(SCc3ccc(Cl)cc3)N12 (centres undefined)
inactive: dose: 50.0 mg/kg/injection, schedule: Q01DX009 (ip), vehicle: saline 112 % of control | dose: 100.0 mg/kg/injection, schedule: Q01DX009 (ip), vehicle: saline 110 % of control | dose: 200.0 mg/kg/injection, schedule: Q01DX009 (ip), vehicle: saline 104 % of control

Cc1ccc(C(=O)C2(c3ccc(C)cc3)CCCCC2)cc1
inactive: dose: 50.0 mg/kg/injection, schedule: Q04DX002 (ip), vehicle: Klucel (hydroxypropylcellulose) (HPC) 91 % of control | dose: 100.0 mg/kg/injection, schedule: Q04DX002 (ip), vehicle: Klucel (hydroxypropylcellulose) (HPC) 90 % of control | dose: 200.0 mg/kg/injection, schedule: Q04DX002 (ip), vehicle: Klucel (hydroxypropylcellulose) (HPC) 95 % of control | dose: 400.0 mg/kg/injection, schedule: Q04DX002 (ip), vehicle: Klucel (hydroxypropylcellulose) (HPC) 91 % of control

COc1cc2c(O)cc(C(=O)O)c(-c3cc(OC)c(OC)c(OC)c3)c2cc1OC
inactive: [1] 98 % of control | [2] 103 % of control | dose: 200.0 mg/kg/injection, schedule: Q01DX005 (ip), vehicle: saline with Tween-80 100 % of control
